Patent US20240384268A1, “Oligonucleotides” (Hudson Institute of Medical Research, priority 2021, published 2024)

target: T1, TLR8 (Homo sapiens, UniProt Q9NR97); test: HEK-TLR8 NF-κB-luciferase reporter, R848 or Motolimod stimulation (potentiation or inhibition); type: cell-based; design: expressed in transfected cells; host or cells: 293XLhTLR8 (HEK293); conditions: ASO 100 nM; relative to R848 only
T1 sequence (Q9NR97 27-1041): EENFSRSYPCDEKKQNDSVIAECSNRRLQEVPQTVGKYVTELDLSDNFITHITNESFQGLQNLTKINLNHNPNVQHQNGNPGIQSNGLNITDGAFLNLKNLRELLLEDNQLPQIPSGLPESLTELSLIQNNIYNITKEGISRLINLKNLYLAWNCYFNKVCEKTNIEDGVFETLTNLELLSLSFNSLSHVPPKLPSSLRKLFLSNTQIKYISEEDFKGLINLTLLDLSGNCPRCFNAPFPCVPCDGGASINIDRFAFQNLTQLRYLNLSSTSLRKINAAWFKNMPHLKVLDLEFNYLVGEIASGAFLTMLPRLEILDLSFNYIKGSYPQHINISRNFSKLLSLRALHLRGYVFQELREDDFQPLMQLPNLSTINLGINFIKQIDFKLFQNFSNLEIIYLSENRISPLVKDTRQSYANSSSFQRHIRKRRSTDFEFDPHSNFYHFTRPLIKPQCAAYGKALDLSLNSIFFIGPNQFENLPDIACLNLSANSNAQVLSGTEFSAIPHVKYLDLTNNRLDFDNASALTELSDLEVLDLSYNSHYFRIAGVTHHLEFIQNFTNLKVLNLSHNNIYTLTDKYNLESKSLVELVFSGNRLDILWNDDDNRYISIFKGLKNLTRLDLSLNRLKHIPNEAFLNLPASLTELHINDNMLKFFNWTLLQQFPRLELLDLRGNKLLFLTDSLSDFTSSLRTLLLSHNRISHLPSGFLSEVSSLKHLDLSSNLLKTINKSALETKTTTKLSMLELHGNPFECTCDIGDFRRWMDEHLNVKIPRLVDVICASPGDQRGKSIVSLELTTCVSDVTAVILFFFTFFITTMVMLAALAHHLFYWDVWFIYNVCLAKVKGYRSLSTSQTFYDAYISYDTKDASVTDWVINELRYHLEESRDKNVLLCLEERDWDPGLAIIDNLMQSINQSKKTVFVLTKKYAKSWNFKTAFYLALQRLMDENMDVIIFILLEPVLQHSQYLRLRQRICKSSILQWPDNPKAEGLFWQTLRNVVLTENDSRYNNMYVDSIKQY

Sequence | TLR8 100 nM (averaged NF-κB-Luciferase level relative to R848 condition, fold increase)
AAAGGACTGAGGAAAG (antisense; LNA-modified, pattern not given here) [CAMSAP1-6273 LNA KL] | 0.882
AACACTTCGTGGGGTC (antisense; LNA-modified, pattern not given here) [HPRT LNA-666 V1] | 0.496
AACCCCTTTCACCATC (antisense; LNA-modified, pattern not given here) [MB21D1-689 LNA KL] | 1.871
AATCCAACAAAGTCTG (antisense; LNA-modified, pattern not given here) [HPRT LNA-692 KL] | 0.591
ACCACGTCTGCTCTAA (antisense; LNA-modified, pattern not given here) [CAMSAP1-1635 LNA KL] | 0.933
ACGTTCAGTCCTGTCC (antisense; LNA-modified, pattern not given here) [HPRT LNA-294 V1] | 0.356
ACTTCGTGGGGTCCTT (antisense; LNA-modified, pattern not given here) [HPRT LNA-663 V1] | 0.820
AGATTTCAGAGCAGCT (antisense; LNA-modified, pattern not given here) [EGFR-4885 LNA KL] | 0.401
AGCTTCGAGGCCCCAG (antisense; LNA-modified, pattern not given here) [MB21D1-616 LNA V1] | 0.331
AGGACTCCAGATGTTT (antisense; LNA-modified, pattern not given here) [HPRT LNA pos cont] | 0.278
AGGCCCTTCGCACTTC (antisense; LNA-modified, pattern not given here) [EGFR-1225 LNA V1] | 0.507
AGGTCTTGGCTTCGTG (antisense; LNA-modified, pattern not given here) [MB21D1-524 LNA V1] | 0.596
AGTGTTGAGATACTCG (antisense; LNA-modified, pattern not given here) [EGFR-3652 LNA KL] | 0.427
ATCTGGCAGCCCATCA (antisense; LNA-modified, pattern not given here) [CTNN2B-2516 LNA V1] | 0.808
ATGGCCTCCCATCTCC (antisense; LNA-modified, pattern not given here) [HPRT LNA-330 V1] | 0.369

same assay, conditions: ASO 500 nM; relative to R848 only

Sequence | TLR8 500 nM (averaged NF-κB-Luciferase level relative to R848 condition, fold increase)
AAAGGACTGAGGAAAG (antisense; LNA-modified, pattern not given here) [CAMSAP1-6273 LNA KL] | 2.663
AACACTTCGTGGGGTC (antisense; LNA-modified, pattern not given here) [HPRT LNA-666 V1] | 0.882
AACCCCTTTCACCATC (antisense; LNA-modified, pattern not given here) [MB21D1-689 LNA KL] | 8.654
AATCCAACAAAGTCTG (antisense; LNA-modified, pattern not given here) [HPRT LNA-692 KL] | 1.900
ACCACGTCTGCTCTAA (antisense; LNA-modified, pattern not given here) [CAMSAP1-1635 LNA KL] | 4.259
ACGTTCAGTCCTGTCC (antisense; LNA-modified, pattern not given here) [HPRT LNA-294 V1] | 0.493
ACTTCGTGGGGTCCTT (antisense; LNA-modified, pattern not given here) [HPRT LNA-663 V1] | 3.672
AGATTTCAGAGCAGCT (antisense; LNA-modified, pattern not given here) [EGFR-4885 LNA KL] | 0.770
AGCTTCGAGGCCCCAG (antisense; LNA-modified, pattern not given here) [MB21D1-616 LNA V1] | 0.865
AGGACTCCAGATGTTT (antisense; LNA-modified, pattern not given here) [HPRT LNA pos cont] | 1.034
AGGCCCTTCGCACTTC (antisense; LNA-modified, pattern not given here) [EGFR-1225 LNA V1] | 0.967
AGGTCTTGGCTTCGTG (antisense; LNA-modified, pattern not given here) [MB21D1-524 LNA V1] | 1.953
AGTGTTGAGATACTCG (antisense; LNA-modified, pattern not given here) [EGFR-3652 LNA KL] | 0.599
ATCTGGCAGCCCATCA (antisense; LNA-modified, pattern not given here) [CTNN2B-2516 LNA V1] | 2.628
ATGGCCTCCCATCTCC (antisense; LNA-modified, pattern not given here) [HPRT LNA-330 V1] | 1.356

same assay, conditions: MOE-modified ASO at 100 nM; averaged NF-κB-Luciferase relative to R848 condition (fold increase)

Sequence | TLR8 100 nM
ACACTTCGTGGGGTCCTTTT (antisense; 2'-MOE modified, pattern not given here) [HPRT-663 MOE] | 4.778

same assay, conditions: MOE-modified ASO at 500 nM; averaged NF-κB-Luciferase relative to R848 condition (fold increase)

Sequence | TLR8 500 nM
ACACTTCGTGGGGTCCTTTT (antisense; 2'-MOE modified, pattern not given here) [HPRT-663 MOE] | 6.320
